In patent publication US20120165384A1, “INHIBITION OF HISTONE ACETYLTRANSFERASES BY CTK7A AND METHODS THEREOF” (JAWAHARLAL NEHRU CENTRE FOR ADVANCED SCIENTIFIC RESEARCH, priority 2009, published 2012):

Experiments:
[1] = system: Histone H3K14 acetylation in KB cells; assay: H3K14 acetylation in GSNO treated KB cells (western blotting); type: cell-based; conditions: concentration dependent
Experimental: (§1) KB cells were maintained in Dullbecco's modified Eagle medium (DMEM) with 10% fetal bovine serum (FBS) at 37° C. with a 5% CO2 atmosphere in a humidified incubator. For IFNγ and GSNO treatment, KB cells were incubated in the presence of IFNγ 10 ng ml^−1 for an additional 16 h and 24 h respectively. Immunofluorescent staining of cells for confocal microscopy was carried out as described previously^30. CTK7A treatment was done for 24 h followed by acid extraction of histone and immunoblotting as per standard protocol^31. For whole cell extract preparation RIPA buffer (Tris-HCl 50 mM, pH 7.4 NP-40 1%, Na-deoxycholate 0.25%, NaCl 150 mM, EDTA 1 mM, Phenylmethylsulfonyl fluoride (PMSF), 1 mM Na3VO4, 1 mM NaF and protease inhibitor cocktail) was used.

[2] = system: NPM1 and GAPDH expression in KB cells; assay: NPM1 and GAPDH expression in treated KB cells; type: cell-based; conditions: 24 h
Experimental: as §1

[3] = system: NPM1 and GAPDH acetylation in KB cells; assay: NPM1 and GAPDH acetylation in KB cells (anti-acetyl lysine immunoprecipitation, western blotting); type: cell-based
Experimental: as §1, with “protocol^31.” for “protocol^31. For whole cell extract preparation RIPA buffer (Tris-HCl 50 mM, pH 7.4 NP-40 1%, Na-deoxycholate 0.25%, NaCl 150 mM, EDTA 1 mM, Phenylmethylsulfonyl fluoride (PMSF), 1 mM Na3VO4, 1 mM NaF and protease inhibitor cocktail) was used.”
Whole cell extract were prepared using RIPA buffer as mentioned above. The pre-blocked protein-G sepharose-bound antibody (4 μg) was incubated with 500 μg whole cell lysate overnight at 4° C. After extensive washes, bead-bound protein were analysed by western blotting with indicated antibodies. For HDAC inhibitors treatment, 5 mM sodium butyrate, 5 mM nicotiamide and 100 ng ml^−1 TSA were added 10 h before cells were harvest^36.

[4] = biological target: T1, full length p300 (Homo sapiens, UniProt Q09472); assay: p300 autoacetylation assay in vitro (3H-acetyl CoA, fluorography/autoradiography); type: biochemical; conditions: dose dependent; 3H-acetyl-CoA
T1 construct: hexahistidine; made in house; host or cells: baculovirus-infected Sf21 cells
T1 sequence (Q09472 whole entry, species assumed): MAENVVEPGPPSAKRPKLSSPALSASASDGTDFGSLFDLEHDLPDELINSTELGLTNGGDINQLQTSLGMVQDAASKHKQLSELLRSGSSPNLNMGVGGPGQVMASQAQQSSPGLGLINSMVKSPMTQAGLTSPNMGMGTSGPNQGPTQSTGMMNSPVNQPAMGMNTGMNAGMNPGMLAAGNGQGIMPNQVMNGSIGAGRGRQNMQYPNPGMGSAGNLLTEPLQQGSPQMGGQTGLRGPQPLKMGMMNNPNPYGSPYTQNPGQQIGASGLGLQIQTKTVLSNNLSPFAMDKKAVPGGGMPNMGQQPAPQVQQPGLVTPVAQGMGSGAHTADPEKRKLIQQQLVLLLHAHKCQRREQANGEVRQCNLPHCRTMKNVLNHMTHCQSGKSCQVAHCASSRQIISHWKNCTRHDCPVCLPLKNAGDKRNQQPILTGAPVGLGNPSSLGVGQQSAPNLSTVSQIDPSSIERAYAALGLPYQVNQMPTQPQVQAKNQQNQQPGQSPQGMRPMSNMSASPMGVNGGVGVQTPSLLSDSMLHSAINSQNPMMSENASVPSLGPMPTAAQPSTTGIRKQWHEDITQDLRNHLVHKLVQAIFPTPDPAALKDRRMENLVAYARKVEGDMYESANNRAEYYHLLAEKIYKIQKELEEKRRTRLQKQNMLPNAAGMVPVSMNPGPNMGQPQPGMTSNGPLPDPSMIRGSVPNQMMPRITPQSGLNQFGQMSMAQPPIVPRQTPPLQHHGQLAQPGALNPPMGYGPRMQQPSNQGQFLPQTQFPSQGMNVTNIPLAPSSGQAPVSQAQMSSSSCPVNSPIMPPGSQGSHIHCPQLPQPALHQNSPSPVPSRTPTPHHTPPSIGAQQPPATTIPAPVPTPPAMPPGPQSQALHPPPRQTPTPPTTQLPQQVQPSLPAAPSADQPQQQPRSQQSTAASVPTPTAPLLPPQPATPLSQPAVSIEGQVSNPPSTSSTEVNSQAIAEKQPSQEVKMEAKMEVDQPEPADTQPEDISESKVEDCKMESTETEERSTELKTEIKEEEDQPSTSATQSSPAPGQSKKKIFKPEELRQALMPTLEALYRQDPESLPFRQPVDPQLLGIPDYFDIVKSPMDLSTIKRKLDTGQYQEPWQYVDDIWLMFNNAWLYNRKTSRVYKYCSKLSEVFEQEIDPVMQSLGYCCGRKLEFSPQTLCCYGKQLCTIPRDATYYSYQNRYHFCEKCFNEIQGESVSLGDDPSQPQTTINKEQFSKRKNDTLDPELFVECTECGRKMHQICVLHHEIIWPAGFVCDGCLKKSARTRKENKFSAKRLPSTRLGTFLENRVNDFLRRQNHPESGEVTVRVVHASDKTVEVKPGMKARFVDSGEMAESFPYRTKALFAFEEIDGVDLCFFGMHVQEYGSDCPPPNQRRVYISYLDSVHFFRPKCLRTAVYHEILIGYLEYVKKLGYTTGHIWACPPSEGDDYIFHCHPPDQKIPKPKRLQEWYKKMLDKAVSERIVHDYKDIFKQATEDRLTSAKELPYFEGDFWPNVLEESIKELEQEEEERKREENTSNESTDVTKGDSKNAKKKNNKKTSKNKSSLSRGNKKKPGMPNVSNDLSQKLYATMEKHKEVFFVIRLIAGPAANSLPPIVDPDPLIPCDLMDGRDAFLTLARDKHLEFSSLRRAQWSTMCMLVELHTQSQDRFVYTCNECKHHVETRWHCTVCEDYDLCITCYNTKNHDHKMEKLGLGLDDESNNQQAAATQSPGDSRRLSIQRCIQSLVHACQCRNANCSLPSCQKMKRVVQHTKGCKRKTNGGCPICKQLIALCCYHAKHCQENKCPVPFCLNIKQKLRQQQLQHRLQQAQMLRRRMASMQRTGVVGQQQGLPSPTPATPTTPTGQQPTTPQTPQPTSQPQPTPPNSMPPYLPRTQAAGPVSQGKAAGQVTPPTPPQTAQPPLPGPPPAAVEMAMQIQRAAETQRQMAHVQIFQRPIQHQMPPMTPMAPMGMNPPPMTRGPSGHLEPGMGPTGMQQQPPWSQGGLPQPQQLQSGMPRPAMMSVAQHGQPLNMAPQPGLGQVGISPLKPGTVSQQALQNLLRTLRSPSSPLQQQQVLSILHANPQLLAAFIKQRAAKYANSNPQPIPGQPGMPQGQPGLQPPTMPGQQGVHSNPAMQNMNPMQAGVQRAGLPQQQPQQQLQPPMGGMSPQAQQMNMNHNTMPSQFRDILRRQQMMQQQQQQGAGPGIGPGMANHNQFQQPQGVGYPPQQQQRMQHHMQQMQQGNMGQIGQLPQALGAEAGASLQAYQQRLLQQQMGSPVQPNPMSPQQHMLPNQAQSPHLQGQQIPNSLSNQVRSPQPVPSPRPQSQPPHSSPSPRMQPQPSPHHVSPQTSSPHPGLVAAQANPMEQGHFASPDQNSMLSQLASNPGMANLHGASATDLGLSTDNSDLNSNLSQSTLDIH
Experimental: (§2) HAT gel fluorography/autoradiography assays were performed as previously reported^30. Kinetic analysis of p300 HAT inhibition was performed as reported earlier^31 in the presence of (0, 30 and 50 μM) CTK7A. The obtained values were plotted as a lineweaver burk plot using Graphpad Prism software. For p300 Autoacetylation assay, reactions of p300 full length (80 ng) were carried out in HAT assay buffer at 30° C. for 10 minutes with or without the protein (NPM1) followed by addition of 1 μl of 4.7 Ci/mmol [^3H] acetyl CoA (NEN-PerkinElmer) and were further incubated for another 10 min in a 30 μl reaction. GAPDH was used as positive control. The radio-labeled acetylated p300 were processed by fluorography followed by autoradiography.

[5] = system: human melanocytes; conditions: earlier report, cited from earlier work
[6] = Solubility test in water; type: physicochemical
Experimental: To a solution of curcumin in methanol (10 mg, 0.027 Mmol) […]. After incubation for 24 h, the solvent was evaporated in vacuum. The residue […] was purified with repeated recrystallization and filtration method using TLC (CHCl3/MeOH=4:1; Rf=0.5). This gave CTK7 as a dark orange powder (7.18 mg, 55%) which was analyzed by H^1 NMR, Melting point test, Solubility test and ESI-MS.
To a solution of CTK7 in methanol (50 mg, 0.1031 mmol), (10 ml) of Sodium ethoxide was added ([…], 0.1175 mmol) and the reaction mixture was stirred at room temperature for 90 minutes. The solvent was evaporated in vacuum and the residue was washed with hexane, diethyl ether and ethyl acetate. Product was confirmed through H^1 NMR, Solubility test, melting point.

[7] = biological target: T2, PCAF (Homo sapiens, UniProt Q92831); assay: HAT assay with recombinant PCAF; type: biochemical
T2 construct: Recombinant baculovirus expressing full-length FLAG-tagged CARM1,CBP and PCAF; FLAG; made in house; host or cells: baculovirus-infected Sf21 cells
T2 sequence (Q92831 whole entry, species assumed): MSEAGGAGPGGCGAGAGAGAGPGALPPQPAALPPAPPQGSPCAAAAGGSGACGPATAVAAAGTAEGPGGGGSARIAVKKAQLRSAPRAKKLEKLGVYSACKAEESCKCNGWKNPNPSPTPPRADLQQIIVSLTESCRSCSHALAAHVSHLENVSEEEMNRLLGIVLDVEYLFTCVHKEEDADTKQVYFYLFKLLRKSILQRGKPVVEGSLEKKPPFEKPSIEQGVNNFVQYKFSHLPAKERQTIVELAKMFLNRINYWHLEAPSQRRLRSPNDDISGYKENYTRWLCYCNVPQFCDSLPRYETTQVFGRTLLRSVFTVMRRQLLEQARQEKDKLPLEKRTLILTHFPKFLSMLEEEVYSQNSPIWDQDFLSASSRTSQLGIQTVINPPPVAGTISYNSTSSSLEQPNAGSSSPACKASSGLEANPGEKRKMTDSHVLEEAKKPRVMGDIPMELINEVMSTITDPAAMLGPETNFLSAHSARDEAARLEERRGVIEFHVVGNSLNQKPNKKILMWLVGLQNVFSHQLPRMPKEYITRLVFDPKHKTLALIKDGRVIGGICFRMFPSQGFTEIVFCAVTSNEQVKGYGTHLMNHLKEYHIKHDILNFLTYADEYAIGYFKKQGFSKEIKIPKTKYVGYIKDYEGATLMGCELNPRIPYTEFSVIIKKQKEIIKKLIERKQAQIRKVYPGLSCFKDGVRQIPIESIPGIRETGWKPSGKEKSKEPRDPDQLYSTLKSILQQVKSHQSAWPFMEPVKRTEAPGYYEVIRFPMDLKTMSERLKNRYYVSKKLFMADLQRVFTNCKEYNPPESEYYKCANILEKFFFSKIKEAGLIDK
Experimental: (§3) Recombinant baculovirus expressing full-length FLAG-tagged CARM1,CBP and PCAF were purified by immunoaffinity chromatography using M2-agarose beads followed by elution with FLAG peptide. Baculovirus-expressed full-length hexahistidine-tagged p300, and G9a were purified using Ni-NTA affinity chromatography as described previously^30.
as §2

[8] = biological target: p300 (Homo sapiens, UniProt Q09472); assay: HAT assay with recombinant p300; type: biochemical; parameters: hexahistidine; made in house; host or cells: baculovirus-infected Sf21 cells
Chain of p300 (Q09472 whole entry, species assumed): as the sequence (Q09472 whole entry, species assumed) above
Experimental: as §3, §2

[9] = system: GAPDH localisation in KB cells; assay: GAPDH nuclear translocation in KB cells (immunofluorescence); type: cell-based; conditions: 10 ng ml−1, 16 h
Experimental: as §1

N[C@@H](CCC(=O)N[C@@H](CSN=O)C(=O)NCC(=O)O)C(=O)O [GSNO, S-nitroso-glutathione]
level of H3K14 acetylation [1]: enhanced | expression of GAPDH [2]: enhanced in a concentration dependent manner | expression of NPM1 [2]: enhanced in a concentration dependent manner | acetylation of GAPDH ([3]; 200 μM GSNO, 24 h): gets acetylated | acetylation of NPM1 ([3]; 200 μM GSNO, 24 h): dramatically enhanced

NPM1: Nucleophosmin, histone chaperone, multifunctional nucleolar protein
activation of autoacetylation of p300 [4]: activate

CC(C)(COP(=O)(O)OP(=O)(O)OC[C@H]1O[C@@H](n2cnc3c(N)ncnc32)[C@H](O)[C@@H]1OP(=O)(O)O)[C@@H](O)C(=O)NCCC(=O)NCCSC(=O)[C@@H](N)CCCCN [Lysyl-CoA, lysyl-CoA]
proliferation of human melanocytes [5]: inhibited | senescence of human melanocytes ([5]; with expression SA-β-gal): induced senescence-like growth arrest

COc1cc(C=Cc2cc(C=Cc3ccc(O)c(OC)c3)n(-c3ccc(C(=O)O)cc3)n2)ccc1O [CTK7, Hydrazinobenzoylcurcumin]
solubility in water [6]: Insoluble

CC(=N)NCc1cccc(CN)c1 [1400 W, N-(3-(Aminomethyl)benzyl)acetamidine]
effect on IFNγ-enhanced GAPDH and NPM1 acetylation ([3]; 100 μM): abolished or reduced

COc1cc(/C=C/C(=O)CC(=O)/C=C/c2ccc(O)c(OC)c2)ccc1O [curcumin, reference compound]
inhibition of PCAF HAT activity [7]: inhibitory effect | inhibition of p300 HAT activity [8]: inhibitory effect

B1: IFNγ: interferon γ, a proinflamatory cytokine that activates iNOS to produce NO (protein, UniProt P01579 24-161, looked up)
Interferon gamma: QDPYVKEAENLKKYFNAGHSDVADNGTLFLGILKNWKEESDRKIMQSQIVSFYFKLFKNFKDDQSIQKSVETIKEDMNVKFFNSNKKKRDDFEKLTNYSVTDLNVQRKAIHELIQVMAELSPAAKTGKRKRSQMLFRG
translocation of GAPDH to nucleus [9]: induce the translocation | GAPDH and NPM1 acetylation ([3]; IFNγ 10 ng ml−1, 16 h, NO-dependent): enhanced
